Source: ChEMBL document CHEMBL1671662, “In vitro activities of telavancin and six comparator agents against anaerobic bacterial isolates” (2009)
Values after ≈ are worked out from the molar mass of the structure shown.

Key:
Prevotella denticola = assay: Antibacterial activity against Prevotella P denticola by CLSI M11-A6 agar dilution method; format: functional
Clostridium bartlettii = assay: Antibacterial activity against Clostridium bartlettii by CLSI M11-A6 agar dilution method; format: functional; details: Intestinibacter bartlettii
Ruminococcus lactaris = assay: Antibacterial activity against Ruminococcus lactaris by CLSI M11-A6 agar dilution method; format: functional
Ruminococcus torques = assay: Antibacterial activity against Ruminococcus torques by CLSI M11-A6 agar dilution method; format: functional; details: Mediterraneibacter torques
Bifidobacterium breve = assay: Antibacterial activity against Bifidobacterium breve by CLSI M11-A6 agar dilution method; format: functional
Ruminococcus albus = assay: Antibacterial activity against Ruminococcus albus by CLSI M11-A6 agar dilution method; format: functional; details: Hominimerdicola alba
Collinsella aerofaciens = assay: Antibacterial activity against Colinsella aerofaciens by CLSI M11-A6 agar dilution method; format: functional
[1] = system: Coprobacillus cateniformis; assay: Antibacterial activity against Coprobacillus cateniformis by CLSI M11-A6 agar dilution method; format: functional
Streptococcus anginosus = assay: Antibacterial activity against Streptococcus anginosus by CLSI M11-A6 agar dilution method; format: functional
Clostridioides difficile = assay: Antibacterial activity against Clostridium difficile by CLSI M11-A6 agar dilution method; format: functional
[2] = system: Paeniclostridium sordellii; assay: Antibacterial activity against Clostridium sordellii by CLSI M11-A6 agar dilution method; format: functional; details: Paraclostridium sordellii
Clostridium leptum = assay: Antibacterial activity against Clostridium leptum by CLSI M11-A6 agar dilution method; format: functional
[3] = system: Bifidobacterium adolescentis; assay: Antibacterial activity against Bifidobacterium adolescentis by CLSI M11-A6 agar dilution method; format: functional
Clostridium = assay: Antibacterial activity against Clostridium hypermegas by CLSI M11-A6 agar dilution method; format: functional
Fusobacterium mortiferum = assay: Antibacterial activity against Fusobacterium mortiferum by CLSI M11-A6 agar dilution method; format: functional
Phocaeicola vulgatus = assay: Antibacterial activity against Bacteroides vulgatus by CLSI M11-A6 agar dilution method; format: functional
Bifidobacterium longum = assay: Antibacterial activity against Bifidobacterium longum by CLSI M11-A6 agar dilution method; format: functional
[4] = system: Ruminococcus flavefaciens; assay: Antibacterial activity against Ruminococcus flavefaciens by CLSI M11-A6 agar dilution method; format: functional
Thomasclavelia ramosa = assay: Antibacterial activity against Clostridium ramosum by CLSI M11-A6 agar dilution method; format: functional
Bifidobacterium bifidum = assay: Antibacterial activity against Bifidobacterium bifidum by CLSI M11-A6 agar dilution method; format: functional
Flavonifractor plautii = assay: Antibacterial activity against Clostridium orbiscindens by CLSI M11-A6 agar dilution method; format: functional
Prevotella intermedia = assay: Antibacterial activity against Prevotella P intermedia by CLSI M11-A6 agar dilution method; format: functional
Clostridium butyricum = assay: Antibacterial activity against Clostridium butyricum by CLSI M11-A6 agar dilution method; format: functional
[5] = system: Clostridium paraputrificum; assay: Antibacterial activity against Clostridium paraputrificum by CLSI M11-A6 agar dilution method; format: functional
[6] = system: Enterocloster clostridioformis; assay: Antibacterial activity against Clostridium clostridioforme by CLSI M11-A6 agar dilution method; format: functional
[7] = Antibacterial activity against Bifidobacterium infantis by CLSI M11-A6 agar dilution method; format: functional, Bifidobacterium longum subsp. infantis; details: Bifidobacterium longum
Parvimonas micra = assay: Antibacterial activity against Peptostreptococcus micros by CLSI M11-A6 agar dilution method; format: functional
Ruminococcus obeum = assay: Antibacterial activity against Ruminococcus obeum by CLSI M11-A6 agar dilution method; format: functional; details: Blautia obeum
Bilophila wadsworthia = assay: Antibacterial activity against Bilophila wadsworthia by CLSI M11-A6 agar dilution method; format: functional
[8] = system: Propionibacterium propionicum; assay: Antibacterial activity against Propionibacterium propionicus by CLSI M11-A6 agar dilution method; format: functional; details: Arachnia propionica
Prevotella disiens = assay: Antibacterial activity against Prevotella P disiens by CLSI M11-A6 agar dilution method; format: functional
Odoribacter splanchnicus = assay: Antibacterial activity against Bacteroides splanchnicus by CLSI M11-A6 agar dilution method; format: functional
Clostridium scindens = assay: Antibacterial activity against Clostridium scindens by CLSI M11-A6 agar dilution method; format: functional
Prevotella corporis = assay: Antibacterial activity against Prevotella corporis by CLSI M11-A6 agar dilution method; format: functional
Ruminococcus sp. = assay: Antibacterial activity against Ruminococcus sp. by CLSI M11-A6 agar dilution method; format: functional
Clostridium beijerinckii = assay: Antibacterial activity against Clostridium beijerinckii by CLSI M11-A6 agar dilution method; format: functional
Anaerococcus tetradius = assay: Antibacterial activity against Anaerococcus tetradius by CLSI M11-A6 agar dilution method; format: functional
Prevotella nigrescens = assay: Antibacterial activity against Prevotella nigrescens by CLSI M11-A6 agar dilution method; format: functional
[9] = system: Sutterella wadsworthensis; assay: Antibacterial activity against Sutterella wadsworthensis by CLSI M11-A6 agar dilution method; format: functional

CN[C@H](CC(C)C)C(=O)N[C@H]1C(=O)N[C@@H](CC(N)=O)C(=O)N[C@H]2C(=O)N[C@H]3C(=O)N[C@H](C(=O)N[C@H](C(=O)O)c4cc(O)cc(O)c4-c4cc3ccc4O)[C@H](O)c3ccc(c(Cl)c3)Oc3cc2cc(c3O[C@@H]2O[C@H](CO)[C@@H](O)[C@H](O)[C@H]2O[C@H]2C[C@](C)(N)[C@H](O)[C@H](C)O2)Oc2ccc(cc2Cl)[C@H]1O [VANCOMYCIN]
MIC50 (Prevotella denticola): 32 µg/mL (≈ 22.1 µM) | MIC90 (Prevotella denticola): > 128 µg/mL | MIC50 (Clostridium bartlettii): 1 µg/mL (≈ 0.69 µM) | MIC90 (Clostridium bartlettii): 4 µg/mL (≈ 2.76 µM) | MIC50 (Ruminococcus lactaris): 0.5 µg/mL (≈ 0.345 µM) | MIC90 (Ruminococcus lactaris): 1 µg/mL (≈ 0.69 µM) | MIC50 (Ruminococcus torques): 0.5 µg/mL (≈ 0.345 µM) | MIC90 (Ruminococcus torques): 1 µg/mL (≈ 0.69 µM) | MIC50 (Bifidobacterium breve): 0.5 µg/mL (≈ 0.345 µM) | MIC90 (Bifidobacterium breve): 4 µg/mL (≈ 2.76 µM) | MIC50 (Ruminococcus albus): 0.5 µg/mL (≈ 0.345 µM) | MIC90 (Ruminococcus albus): 1 µg/mL (≈ 0.69 µM) | MIC50 (Collinsella aerofaciens): 0.5 µg/mL (≈ 0.345 µM) | MIC90 (Collinsella aerofaciens): 4 µg/mL (≈ 2.76 µM) | MIC50 [1]: 0.5 µg/mL (≈ 0.345 µM) | MIC90 [1]: 4 µg/mL (≈ 2.76 µM) | MIC50 (Streptococcus anginosus): 2 µg/mL (≈ 1.38 µM) | MIC90 (Streptococcus anginosus): 2 µg/mL (≈ 1.38 µM) | MIC50 (Clostridioides difficile): 1 µg/mL (≈ 0.69 µM) | MIC90 (Clostridioides difficile): 2 µg/mL (≈ 1.38 µM) | MIC50 [2]: 1 µg/mL (≈ 0.69 µM) | MIC90 [2]: 4 µg/mL (≈ 2.76 µM) | MIC50 (Clostridium leptum): 1 µg/mL (≈ 0.69 µM) | MIC90 (Clostridium leptum): 4 µg/mL (≈ 2.76 µM) | MIC50 [3]: 0.5 µg/mL (≈ 0.345 µM) | MIC90 [3]: 4 µg/mL (≈ 2.76 µM) | MIC50 (Clostridium): 1 µg/mL (≈ 0.69 µM) | MIC90 (Clostridium): 4 µg/mL (≈ 2.76 µM) | MIC (Fusobacterium mortiferum): > 128 µg/mL | MIC50 (Fusobacterium mortiferum): > 128 µg/mL | MIC90 (Fusobacterium mortiferum): > 128 µg/mL | MIC50 (Phocaeicola vulgatus): 64 µg/mL (≈ 44.2 µM) | MIC90 (Phocaeicola vulgatus): 128 µg/mL (≈ 88.3 µM) | MIC50 (Bifidobacterium longum): 0.5 µg/mL (≈ 0.345 µM) | MIC90 (Bifidobacterium longum): 4 µg/mL (≈ 2.76 µM) | MIC50 [4]: 0.5 µg/mL (≈ 0.345 µM) | MIC90 [4]: 1 µg/mL (≈ 0.69 µM) | MIC50 (Thomasclavelia ramosa): 8 µg/mL (≈ 5.52 µM) | MIC90 (Thomasclavelia ramosa): 8 µg/mL (≈ 5.52 µM) | MIC50 (Bifidobacterium bifidum): 0.5 µg/mL (≈ 0.345 µM) | MIC90 (Bifidobacterium bifidum): 4 µg/mL (≈ 2.76 µM) | MIC50 (Flavonifractor plautii): 1 µg/mL (≈ 0.69 µM) | MIC90 (Flavonifractor plautii): 4 µg/mL (≈ 2.76 µM) | MIC50 (Prevotella intermedia): 32 µg/mL (≈ 22.1 µM) | MIC90 (Prevotella intermedia): > 128 µg/mL | MIC50 (Clostridium butyricum): 1 µg/mL (≈ 0.69 µM) | MIC90 (Clostridium butyricum): 4 µg/mL (≈ 2.76 µM) | MIC50 [5]: 1 µg/mL (≈ 0.69 µM) | MIC90 [5]: 4 µg/mL (≈ 2.76 µM) | MIC50 [6]: 2 µg/mL (≈ 1.38 µM) | MIC90 [6]: 2 µg/mL (≈ 1.38 µM) | MIC50 [7]: 0.5 µg/mL (≈ 0.345 µM) | MIC90 [7]: 4 µg/mL (≈ 2.76 µM) | MIC50 (Parvimonas micra): 0.5 µg/mL (≈ 0.345 µM) | MIC90 (Parvimonas micra): 1 µg/mL (≈ 0.69 µM) | MIC50 (Ruminococcus obeum): 0.5 µg/mL (≈ 0.345 µM) | MIC90 (Ruminococcus obeum): 0.5 µg/mL (≈ 0.345 µM) | MIC (Bilophila wadsworthia): > 128 µg/mL | MIC50 (Bilophila wadsworthia): > 128 µg/mL | MIC90 (Bilophila wadsworthia): > 128 µg/mL | MIC50 [8]: 0.5 µg/mL (≈ 0.345 µM) | MIC90 [8]: 4 µg/mL (≈ 2.76 µM) | MIC50 (Prevotella disiens): 32 µg/mL (≈ 22.1 µM) | MIC90 (Prevotella disiens): > 128 µg/mL | MIC50 (Odoribacter splanchnicus): 128 µg/mL (≈ 88.3 µM) | MIC90 (Odoribacter splanchnicus): > 128 µg/mL | MIC50 (Clostridium scindens): 1 µg/mL (≈ 0.69 µM) | MIC90 (Clostridium scindens): 4 µg/mL (≈ 2.76 µM) | MIC50 (Prevotella corporis): 32 µg/mL (≈ 22.1 µM) | MIC90 (Prevotella corporis): > 128 µg/mL | MIC50 (Ruminococcus sp.): 0.5 µg/mL (≈ 0.345 µM) | MIC90 (Ruminococcus sp.): 1 µg/mL (≈ 0.69 µM) | MIC50 (Clostridium beijerinckii): 1 µg/mL (≈ 0.69 µM) | MIC90 (Clostridium beijerinckii): 4 µg/mL (≈ 2.76 µM) | MIC50 (Anaerococcus tetradius): 0.5 µg/mL (≈ 0.345 µM) | MIC90 (Anaerococcus tetradius): 1 µg/mL (≈ 0.69 µM) | MIC50 (Prevotella nigrescens): 32 µg/mL (≈ 22.1 µM) | MIC90 (Prevotella nigrescens): > 128 µg/mL | MIC [9]: > 128 µg/mL | MIC50 [9]: > 128 µg/mL | MIC90 [9]: > 128 µg/mL
